These results are taken from patent publication EP4755888A1 (ILAb Co., Ltd., priority 2023, dated 2025).

The IC50 is the point on the concentration scale where inhibition reaches its midpoint.

Where only a bound is given, the exact number is not on record here.

In this test the target is PD-1/PD-L1 (Homo sapiens, UniProt Q9NZQ7). Briefly: TR-FRET PD-1/PD-L1 binding inhibition at the molecular level (free proteins). The settings on record: Tag1-PD-L1 and Tag2-PD-1 proteins, twelve concentrations from 200 nM, 2 hours at room temperature, read-out: FRET assay (IC50). The procedure, abridged: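 HTRF read-out at 665/620 nm after 2 h at room temperature. Detection used anti-Tag1 Eu cryptate plus anti-Tag2 XL665 antibodies. Tagged PD-L1 and PD-1 proteins were pre-mixed with compound across twelve […] 1:2 dilutions starting at 200 nM.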
Sequence of PD-1/PD-L1 (Q9NZQ7 19-238 limits assumed): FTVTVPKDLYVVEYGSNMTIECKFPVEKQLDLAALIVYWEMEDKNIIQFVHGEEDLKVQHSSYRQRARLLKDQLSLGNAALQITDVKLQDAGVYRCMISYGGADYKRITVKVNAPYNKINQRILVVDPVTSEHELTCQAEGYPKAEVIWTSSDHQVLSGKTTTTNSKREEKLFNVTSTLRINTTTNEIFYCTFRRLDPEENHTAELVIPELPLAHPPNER
Background: TR-FRET usually uses a lanthanide donor and a delayed reading to cut background.
`Cc1c(NC(=O)c2cc3n(n2)CCCC3NC[C@@H]2CCC(=O)N2)cccc1-c1cccc(NC(=O)c2nc3c(n2C)CCN(CCC24CCC(C(=O)O)(CC2)C4)C3)c1C` (stereo partly drawn) [Compound 49, 4-(2-(2-((2,2'-dimethyl-3'-(4-((((S)-5-oxopyrrolidin-2-yl)methyl)amino)-4,5,6,7-tetrahydropyrazolo[1,5-a]pyridine-2-carboxamido)-[1,1'-biphenyl]-3-yl)carbamoyl)-1-methyl-6,7-dihydro-1H-imidazo[4,5-c]pyridin-5(4H)-yl)ethyl)bicyclo[2.2.1]heptane-1-carboxylic acid]: the IC50 is less than 10 nM.
The figure for `O=C(Nc1cccc(-c2cccc(Nc3nc(C(F)F)nc4cc(CN5CC[C@@H](O)C5)cnc34)c2Cl)c1Cl)c1cc2n(n1)CCCC2O` (stereo partly drawn) [Compound 138, N-(2,2'-dichloro-3'-((2-(difluoromethyl)-7-(((R)-3-hydroxypyrrolidin-1-yl)methyl)pyrido[3,2-d]pyrimidin-4-yl)amino)-[1,1'-biphenyl]-3-yl)-4-hydroxy-4,5,6,7-tetrahydropyrazolo[1,5-a]pyridine-2-carboxamide] is 10 to 100 nM; for `Cc1c(Nc2nccc3cc(CN4CC[C@@H](O)C4)cnc23)cccc1-c1cccc(NC(=O)c2cc3n(n2)CCCC3NCC(=O)O)c1Cl` (stereo partly drawn) [Compound 32, 2-((2-((2-chloro-3'-((3-(((R)-3-hydroxypyrrolidin-1-yl)methyl)-1,7-naphthyridin-8-yl)amino)-2'-methyl-[1,1'-biphenyl]-3-yl)carbamoyl)-4,5,6,7-tetrahydropyrazolo[1,5-a]pyridin-4-yl)amino)acetic acid] it is less than 10 nM.
As for `CC(=O)NCCNC1CCCn2nc(C(=O)Nc3cccc(-c4cccc(NC(=O)c5ccc(CNCCO)cn5)c4C)c3C)cc21` (centres unmarked) [Compound 72, 4-((2-acetamidoethyl)amino)-N-(3'-(5-(((2-hydroxyethyl)amino)methyl)picolinamido)-2,2'-dimethyl-[1,1'-biphenyl]-3-yl)-4,5,6,7-tetrahydropyrazolo[1,5-a]pyridine-2-carboxamide], the figure is less than 10 nM.
As for `O=C(Nc1cccc(-c2cccc(Nc3nc(C(F)F)nc4cccnc34)c2Cl)c1Cl)c1cc2n(n1)CCC[C@@H]2N1CCC(C(=O)O)CC1` (stereo in doubt) [Compound 290, (S)-1-(2-((2,2'-dichloro-3'-((2-(difluoromethyl)pyrido[3,2-d]pyrimidin-4-yl)amino)-[1,1'-biphenyl]-3-yl)carbamoyl)-4,5,6,7-tetrahydropyrazolo[1,5-a]pyridin-4-yl)piperidine-4-carboxylic acid], the figure is 10 to 100 nM; as for `Cc1c(Nc2nccc3cc(CN4CC[C@@H](O)C4)cnc23)cccc1-c1cccc(NC(=O)c2cc3n(n2)CCCC3NC[C@@H]2CCC(=O)N2)c1Cl` (stereo partly drawn) [Compound 31, N-(2-chloro-3'-((3-(((R)-3-hydroxypyrrolidin-1-yl)methyl)-1,7-naphthyridin-8-yl)amino)-2'-methyl-[1,1'-biphenyl]-3-yl)-4-((((S)-5-oxopyrrolidin-2-yl)methyl)amino)-4,5,6,7-tetrahydropyrazolo[1,5-a]pyridine-2-carboxamide], less than 10 nM; as for `CC(C)(NC1CCCn2nc(C(=O)Nc3cccc(-c4cccc(NC(=O)c5ccc(CN6CC[C@@H](O)C6)cn5)c4Cl)c3Cl)cc21)C(=O)O` (stereo partly drawn) [Compound 108, 2-((2-((2,2'-dichloro-3'-(5-(((R)-3-hydroxypyrrolidin-1-yl)methyl)picolinamido)-[1,1'-biphenyl]-3-yl)carbamoyl)-4,5,6,7-tetrahydropyrazolo[1,5-a]pyridin-4-yl)amino)-2-methylpropanoic acid], less than 10 nM.
With `O=C(Nc1cccc(-c2cccc(Nc3nccc4cc(CN5CC(F)C5)cnc34)c2Cl)c1Cl)c1cc2n(n1)CCC[C@H]2N1CCC(C(=O)O)CC1` [Compound 284, (R)-1-(2-((2,2'-dichloro-3'-((3-((3-fluoroazetidin-1-yl)methyl)-1,7-naphthyridin-8-yl)amino)-[1,1'-biphenyl]-3-yl)carbamoyl)-4,5,6,7-tetrahydropyrazolo[1,5-a]pyridin-4-yl)piperidine-4-carboxylic acid], the IC50 lay within 10 to 100 nM.
